Where two headings read alike, the source gives them in different places.
Tests used:
[1] = test system: U-937 monocytes on endothelial cell monolayers; test: Monocyte-endothelial cell-cell adhesion by fluorescence spectroscopy; format: cell-based; settings: alone or in complex with LDL
[2] = test system: vascular smooth muscle cell line (VSMC); test: LDH release cytotoxicity assay, VSMC; format: cell-based; settings: Homo sapiens, 18 h
Experimental: Cytotoxicity assays. WI-L2 human B-lymphocyte line, HAAE-1 human abdominal aortic endothelial line, MH-S murine alveolar macrophage line, and J774A.1 murine tissue macrophage line were obtained from the ATCC. Human aortic endothelial cells (HAEC) and human vascular smooth muscle cells (VSMS) were obtained from Cambrex Bio Science. Jurkat E6-1T-lymphocytes were kindly provided by Dr. J. Kaye (The Scripps Research Institute). Cells were cultured in ATCC-recommended media with 10% fetal calf serum. Cells were incubated in a controlled atmosphere at 37° C., with 5 or 7% CO2. For lactate dehydrogenase (LDH) release assays, adherent cells were harvested either by addition of 0.05% trypsin/EDTA or by scraping. The cells obtained were seeded onto 96-well microtiter plates (25,000 cells/well) and allowed to recover for 24-48 h. […] Cytotoxicity was then determined by measuring lactate dehydrogenase (LDH) release from cells in culture. […] 100% Cytotoxicity was defined as the maximum amount of LDH released by dead cells as shown by trypan blue exclusion, or the highest amount of LDH detected upon lysis of cells by 0.9% Triton X-100. The IC50 values were determined by comparison of the raw duplicate data for concentration versus cytotoxicity (%) to non-linear regression analysis (Hill plot) using Graphpad v3.0 software for Macintosh. […]

J774.1 macrophages = test: Lipid-loading assay (foam cell formation); format: cell-based, murine; settings: J774.1, 72 h, LDL 100 μg/mL with or without compound 20 μM
Experimental: Lipid-loading assay (foam cell formation). J774.1 macrophages were incubated in ATCC-recommended media containing 10% fetal bovine serum under a controlled atmosphere of 5 or 7% CO2 at 37° C., in 8-well chamber slides. […] At termination, cells were washed twice with PBS (pH 7.4). The cells were then fixed with 6% (v/v) paraformaldehyde in PBS for 30 minutes, rinsed with propylene glycol for 2 minutes and lipids were stained with 5 mg/ml Oil Red 0 for 8 minutes. The cells were counterstained with Harris' hematoxylin for 45 seconds, and background staining was removed with 6% paraformaldehyde followed by washing once in PBS and once in tap water. Cover slips were mounted onto the glass slides using glycerol and the slide preparations were examined by light microscopy. The number of lipid-laden cells was scored out of a total of at least 100 cells counted in a single field in each slide, and expressed as a percentage of total cells. Photographs were taken at 100× magnification.

[3] = test system: MH-S murine alveolar macrophage line; test: LDH release cytotoxicity assay, MH-S; format: cell-based; settings: 18 h
Experimental: Cytotoxicity assays. WI-L2 human B-lymphocyte line, HAAE-1 human abdominal aortic endothelial line, MH-S murine alveolar macrophage line, and J774A.1 murine tissue macrophage line were obtained from the ATCC. Human aortic endothelial cells (HAEC) and human vascular smooth muscle cells (VSMS) were obtained from Cambrex Bio Science. Jurkat E6-1T-lymphocytes were kindly provided by Dr. J. Kaye (The Scripps Research Institute). Cells were cultured in ATCC-recommended media with 10% fetal calf serum. Cells were incubated in a controlled atmosphere at 37° C., with 5 or 7% CO2. For lactate dehydrogenase (LDH) release assays, adherent cells were harvested either by addition of 0.05% trypsin/EDTA or by scraping. The cells obtained were seeded onto 96-well microtiter plates (25,000 cells/well) and allowed to recover for 24-48 h. […] Cytotoxicity was then determined by measuring lactate dehydrogenase (LDH) release from cells in culture. […] 100% Cytotoxicity was defined as the maximum amount of LDH released by dead cells as shown by trypan blue exclusion, or the highest amount of LDH detected upon lysis of cells by 0.9% Triton X-100. The IC50 values were determined by comparison of the raw duplicate data for concentration versus cytotoxicity (%) to non-linear regression analysis (Hill plot) using Graphpad v3.0 software for Macintosh.

neuronal cell lines = test: Cytotoxicity towards neuronal cell lines (similar procedures); format: cell-based
J774A.1 macrophages = test: Uptake and localization in macrophages by fluorescence microscopy; format: cell-based, murine; settings: 50 μM dansyl derivative, 5 min to 1 h; not complexed with LDL
Experimental: J774A.1 cells were plated in 8-well chambered slides (Nalge Nunc International). Cells were gently washed twice with PBS, pH 7.4 before 5 min or 1 h exposure to 50 μM dansyl derivative of cholesterol ozonation product 5d or 5e, dansyl cholesterol derivative 9c or 9d, or dansyl hydrazine diluted in media without FCS (0.05% v/v final DMSO concentration). [drawing 28] Media was removed by aspiration and cells were fixed immediately in 95% ice cold methanol for 5 min. Cells were mounted in glycerol containing Antifade reagent (Molecular Probes). Fluorescence images were documented using DeltaVision Deconvolution microscope (API, Issaquah WA) equipped with a Photometrics CH350L liquid cooled CCD camera attached to an Olympus IX—70 inverted microscope. […] All images were deconvolved using constrained iterative algorithms (10 iterations) of DeltaVision software (softWoRx, v2.5). The deconvolved images were subsequently processed using softWoRx, v2.5.
In some experiments, murine macrophage RAW 264.7 (ECACC 91062702) cells were grown in RPMI (Gibco) with 10% FCS at 37° C. with 5% CO2. For fluorescence imaging, cells were incubated on cover slips in 6-well chambered plates (Costar) for 12 h, gently washed 3 times in PBS at pH 7.4, and incubated with 50 μM dansyl derivative of cholesterol ozonation product 5d or 5e, dansyl cholesterol derivative 9c or 9d, in RPMI with 10% FCS for 5, 15, 30, and 60 min. A solution of the dansyl derivative was then added in DMSO [final DMSO, 0.05% (v/v)]. Media was removed by aspiration, and cells were washed twice with PBS, followed by fixing in paraformaldehyde (3.7% in PBS) for 10 min. Cover slips were mounted in MOWIOL 4-88 (Calbiochem). Microscopy was performed using an inverted Zeiss Axioscope 2 Plus fluorescence microscope, and images were obtained with a Zeiss Axiocam digital camera using Axiovision software (version 3.1). The data were collected using a 63× oil immersion lens and DAPI filter (excitation 360/emission 460), and images were processed with Axiovision software and Adobe software (Photoshop 6.0).

## CC(C)CCC[C@@H](C)[C@H]1CCC2C3C(CC[C@@]21C)[C@@]1(C)CC[C@H](O)C[C@@]1(O)[C@@H]3C=O (stereo partly drawn) [5a, 3β-Hydroxy-5β-hydroxy-B-norcholestane-6β-carboxaldehyde]
[1]
  adhesion of U-937 monocytes to endothelial cell monolayers, above that of LDL alone: no significant increase in equilibrium binding of monocytes to endothelial cells
[2]
  IC50: 29.8 ± 2.8 µM
J774.1 macrophages
  lipid-loading of macrophages / foam cell formation: began lipid-loading
[3]; Mus musculus, Macrophage
  IC50: 13.6 ± 1.1 µM
Neuronal cell lines
  cytotoxic towards neuronal cell lines: cytotoxic
J774A.1 macrophages
  uptake and localization in macrophages: efficiently taken up by macrophages

## CC(C)CCC[C@@H](C)[C@H]1CCC2C(CC=O)C([C@@]3(C)CC[C@H](O)CC3=O)CC[C@@]21C (stereo partly drawn) [4a, 3β-Hydroxy-5-oxo-5,6-secocholestan-6-al]
[1]
  adhesion of U-937 monocytes to endothelial cell monolayers, above that of LDL alone: no significant increase in equilibrium binding of monocytes to endothelial cells
[2]; LDH release, 0-100 μM, read-out: IC50
  IC50: 21.9 ± 2.2 µM
J774.1 macrophages
  lipid-loading of macrophages / foam cell formation: began lipid-loading
[3]; MH-S, LDH release, 0-100 μM, read-out: IC50
  IC50: 11.2 ± 1.2 µM
Neuronal cell lines
  cytotoxic towards neuronal cell lines: cytotoxic
J774A.1 macrophages
  uptake and localization in macrophages: efficiently taken up by macrophages

Source: patent US20070059242A1, “METHODS TO IDENTIFY THERAPEUTIC AGENTS” (priority 2005, published 2007)
